Measured values published in ChEMBL document CHEMBL1125944, “Imidazo[1,2-a]piperazines as mechanistic inhibitors of serine proteinases” (Bioorg Med Chem Lett, 1991).

Target: T1, Neutrophil elastase (Homo sapiens, UniProt P08246)
T1 sequence (P08246 whole entry): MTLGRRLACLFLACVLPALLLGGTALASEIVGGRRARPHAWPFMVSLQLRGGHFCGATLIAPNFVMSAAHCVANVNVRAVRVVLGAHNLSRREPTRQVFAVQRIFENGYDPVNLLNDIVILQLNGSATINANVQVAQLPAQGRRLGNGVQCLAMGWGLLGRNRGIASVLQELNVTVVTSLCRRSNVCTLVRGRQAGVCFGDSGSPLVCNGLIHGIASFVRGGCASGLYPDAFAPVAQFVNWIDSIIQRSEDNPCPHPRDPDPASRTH
Assay: Compound was tested for its inhibitory activity against human leukocyte Elastase (HLE)

- IC50: 8.74 µM
Structure (SMILES): CC(C)C1N=C2CN(C3Cc4ccccc4C3)C(=O)[C@H](C(C)C)N2C1(O)C(F)(F)F (stereo partly specified)
